According to patent US8653143B2, “Use of panduratin derivative or Boesenbergia pandurata extract” (Newtree Co., Ltd., priority 2008, dated 2014):

Key:
Format in all cases: in vivo, C57BL/6 mice
[1] = system: mice in which obesity is induced with a high-fat diet; test: Body weight and food intake of high-fat diet obese mice treated with panduratin derivatives; details: for food intake, test group versus other groups: high-fat diet obese C57BL/6 mice; for body weight increase after 8 weeks: high-fat diet control about 32%
From the text: (§1) Mice in which obesity is induced with a high-fat diet were selected as a model to investigate the obesity-relieving effect of panduratin A prepared in Example 2. 3-week-old C57BL/6 mice were accustomed for a week, and a high-fat diet (Product # D12492, Research Diet Inc., New Brunswick, N.J., USA) was provided for 6 weeks to induce obesity. Then, the mice were randomly divided into 3 groups, 12 per each group. For the test group, panduratin A suspended in 0.25% carboxymethyl cellulose was administered once a day at regular hours for 8 weeks, with an administration dose of 50 mg/kg body weight. For comparison, 0.25% carboxymethyl cellulose only (control) of the same amount as that for the test group or sibutramine suspended in 0.25% carboxymethyl cellulose (5 mg/kg body weight) was orally administered. Then, food intake and body weight of the mice were measured every week, for 8 weeks.
(§2) The effect of isopanduratin A prepared in Example 3 on body weight and body fat decrease was investigated in the same manner as in Examples 5 and 6. After administration for 8 weeks, there was no difference between the test group and other groups in food intake.
(§3) The effect of 4-hydroxypanduratin A prepared in Example 4 on body weight and body fat decrease was investigated in the same manner as in Examples 5 and 6. After administration for 8 weeks, there was no difference between the 4-hydroxypanduratin-administered test group and other groups in food intake.

[2] = system: mice in which obesity is induced with a high-fat diet; test: Body fat (abdominal, perirenal, epididymal) in high-fat diet obese mice treated with panduratin derivatives; details: administration for 8 weeks, same manner as panduratin A (50 mg/kg)
Protocol: as §1, with “3-week-old” for “Mice in which obesity is induced with a high-fat diet were selected as a model to investigate the obesity-relieving effect of panduratin A prepared in Example 2. 3-week-old”, “After administration for 8 weeks,” for “Then, food intake and body weight of”, “fasted” for “measured every week,”, “at least 12 hours. After cutting open the abdomen, perirenal fat and epididymal fat were taken out, washed with physiological saline, dried, and then weighed.” for “8 weeks.”
as §2, §3

[3] = system: mice in which obesity is induced with a high-fat diet; test: Body weight and food intake of high-fat diet obese mice treated with Boesenbergia pandurata extract; details: sibutramine 5 mg/kg orally for 8 weeks; high-fat diet control about 33%
From the text: as §1, with “of the Boesenbergia pandurata extract” for “of panduratin A”, “Example 1. 4-week-old” for “Example 2. 3-week-old”, “groups, 8” for “groups, 12”, “group, Boesenbergia pandurata extract” for “group, panduratin A”, “of 200” for “of 50”

[4] = system: mice in which obesity is induced with a high-fat diet; test: Serum total cholesterol, triglyceride, total lipid and leptin in high-fat diet obese mice; details: sibutramine 5 mg/kg orally for 8 weeks
Protocol: 3-week-old C57BL/6 mice were accustomed for a week, and a high-fat diet (Product # D12492, Research Diet Inc., New Brunswick, N.J., USA) was provided for 6 weeks to induce obesity. Then, the mice were randomly divided into 3 groups, 12 per each group. For the test group, panduratin A suspended in 0.25% carboxymethyl cellulose was administered once a day at regular hours for 8 weeks, with an administration dose of 50 mg/kg body weight. For comparison, 0.25% carboxymethyl cellulose only (control) of the same amount as that for the test group or sibutramine suspended in 0.25% carboxymethyl cellulose (5 mg/kg body weight) was orally administered. After administration for 8 weeks, the mice were fasted for at least 12 hours. After cutting open the abdomen, blood was taken from the heart. The blood was centrifuged at 2,800 rpm at 4° C. for 30 minutes to separate the serum. The separated serum was stored at −70° C.
Total cholesterol level in the serum was determined by measuring absorbance at 500 nm using a standard enzyme assay kit. Serum triglyceride level was determined by measuring absorbance at 546 nm using a glycerol phosphate oxidase assay kit. Serum total lipid level was determined by measuring absorbance at 540 nm by the Frings method. Serum leptin level was determined by radioimmunoassay (RIA) using a mouse leptin RIA kit (Linco Research, Inc. USA).

[5] = 50 mg/kg body weight once a day for 8 weeks

Compound	food intake, test group versus other groups [1, 5]	body weight increase after 8 weeks [1, 5] [%]	decrease of epididymal fat weight as compared to the high-fat diet control group [2] [%]	decrease of perirenal fat weight as compared to the high-fat diet control group [2] [%]	body weight increase after 8 weeks [3]	body weight increase after 8 weeks ([1]; sibutramine 5 mg/kg body weight orally for 8 weeks)	total cholesterol level in the serum ([4]; control 140.73±16.47) [mg/dL]	serum triglyceride level ([4]; control 154.36±27.02) [mg/dL]	total lipid level in the serum ([4]; control 555.18±80.86) [mg/dL]
CC(C)=CC[C@@H]1C(C)=CC[C@@H](c2ccccc2)[C@@H]1C(=O)c1c(O)cc(O)cc1O [4-hydroxypanduratin A]	no difference	~13	46	33					
COc1cc(O)cc(O)c1C(=O)[C@@H]1[C@H](CC=C(C)C)C(C)=CC[C@H]1c1ccccc1 [isopanduratin A, (4,6-dihydroxy-2-methoxyphenyl)[3-methyl-2-(3-methylbut-2-enyl)-6-phenylcyclohex-3-enyl]methanone]	no difference	~17	32	25					
CC(C)CC(N(C)C)C1(c2ccc(Cl)cc2)CCC1 (stereo not shown) [sibutramine]					about 27%	about 20%	122.4 ± 22.6	150.2 ± 20.19	493.2 ± 111.9
